According to the supplement of paper PMC13380429:

Experiments:
[1] = tested on: Calu-3; assay: cell viability relative to DMSO; higher = less toxic; details: 72 h
[2] = tested on: Vero E6; assay: as above; details: 72 h
[3] = tested on: U2OS; assay: as above; details: 72 h
[4] = tested on: Caco-2; assay: as above; details: 72 h
[5] = tested on: HepG2; assay: as above; details: 72 h
[6] = tested on: A549-ACE2; assay: phospholipidosis EC50; higher = less potent phospholipidosis inducer
[7] = tested on: A549-ACE2; assay: drug-induced phospholipidosis relative to tamoxifen; higher = more phospholipidosis
[8] = tested on: A549-ACE2 infected with SARS-CoV-2; assay: cell count relative to DMSO; higher = less toxic; details: 24 h
[9] = tested on: Calu-3; assay: drug sensitivity score (DSS) for viability; higher = more toxic; extreme values may be limits of the assay; details: 72 h
[10] = tested on: Vero E6; assay: as above; details: 72 h
[11] = tested on: U2OS; assay: as above; details: 72 h
[12] = tested on: Caco-2; assay: as above; details: 72 h
[13] = tested on: HepG2; assay: as above; details: 72 h
[14] = tested on: Calu-3; assay: relative viability EC50 (midpoint between 100% and the lowest measured viability); higher = less toxic; details: 72 h
[15] = tested on: Vero E6; assay: as above; details: 72 h
[16] = tested on: HepG2; assay: as above; details: 72 h
[17] = tested on: A549-ACE2 infected with SARS-CoV-2; assay: SARS-CoV-2 infection rate relative to DMSO; higher = more infection; details: 24 h
[18] = tested on: A549-ACE2 infected with SARS-CoV-2; assay: morphology score (similarity to uninfected cells); higher = more like uninfected cells; details: 24 h
[19] = tested on: U2OS; assay: relative viability EC50 (midpoint between 100% and the lowest measured viability); higher = less toxic; details: 72 h
[20] = tested on: Caco-2; assay: as above; details: 72 h

What does the source list for `CCCCCCCCc1ccc(CCC(N)(CO)CO)cc1` [fingolimod]?
cell viability ([1]; 1 nM): 101%; cell viability ([1]; 10 nM): 104%; cell viability ([1]; 100 nM): 102%; cell viability ([1]; 1000 nM): 94.9%; cell viability ([1]; 10000 nM): 8.4%; cell viability ([2]; 1 nM): 105%; cell viability ([2]; 10 nM): 95.4%; cell viability ([2]; 100 nM): 105%; cell viability ([2]; 1000 nM): 101%; cell viability ([2]; 10000 nM): 84.7%; cell viability ([3]; 1 nM): 102%; cell viability ([3]; 10 nM): 105%; cell viability ([3]; 100 nM): 102%; cell viability ([3]; 1000 nM): 105%; cell viability ([3]; 10000 nM): 71.9%; cell viability ([4]; 1 nM): 101%; cell viability ([4]; 10 nM): 100%; cell viability ([4]; 100 nM): 87.2%; cell viability ([4]; 1000 nM): 93.8%; cell viability ([4]; 10000 nM): 55.7%; cell viability ([5]; 1 nM): 107%; cell viability ([5]; 10 nM): 105%; cell viability ([5]; 100 nM): 99.5%; cell viability ([5]; 1000 nM): 98%; cell viability ([5]; 10000 nM): 0.4%; phospholipidosis EC50 ([6]; 24 h): 3.36 µM; phospholipidosis EC50 ([6]; 48 h): 3.04 µM; phospholipidosis EC50 ([6]; 72 h): 5.67 µM; drug-induced phospholipidosis ([7]; 0.3 µM, 24 h): 9.06%; drug-induced phospholipidosis ([7]; 0.3 µM, 48 h): 8.05%; drug-induced phospholipidosis ([7]; 0.3 µM, 72 h): 4.63%; drug-induced phospholipidosis ([7]; 0.833333 µM, 24 h): 18.8%; drug-induced phospholipidosis ([7]; 0.833333 µM, 48 h): 10.9%; drug-induced phospholipidosis ([7]; 0.833333 µM, 72 h): 6.35%; drug-induced phospholipidosis ([7]; 3.33333 µM, 24 h): 83.3%; drug-induced phospholipidosis ([7]; 3.33333 µM, 48 h): 84.5%; drug-induced phospholipidosis ([7]; 3.33333 µM, 72 h): 49.7%; drug-induced phospholipidosis ([7]; 6.66667 µM, 24 h): 124%; drug-induced phospholipidosis ([7]; 6.66667 µM, 48 h): 114%; drug-induced phospholipidosis ([7]; 6.66667 µM, 72 h): 102%; drug-induced phospholipidosis ([7]; 10 µM, 24 h): 138%; drug-induced phospholipidosis ([7]; 10 µM, 48 h): 135%; drug-induced phospholipidosis ([7]; 10 µM, 72 h): 130%; cell count ([8]; 0.3 µM): 100%; cell count ([8]; 3 µM): 109%; cell count ([8]; 10 µM): 114%; drug sensitivity score [9]: 5.8; drug sensitivity score [10]: 0.2; drug sensitivity score [11]: 0.9; drug sensitivity score [12]: 3.3; drug sensitivity score [13]: 5.8; relative viability EC50 [14]: 2.73 µM; relative viability EC50 [15]: > 10 µM; relative viability EC50 [16]: 3.02 µM; SARS-CoV-2 infection rate ([17]; 0.3 µM): 100%; SARS-CoV-2 infection rate ([17]; 3 µM): 64%; SARS-CoV-2 infection rate ([17]; 10 µM): 12%; morphology score ([18]; 0.3 µM): -0.2; morphology score ([18]; 3 µM): 0.46; morphology score ([18]; 10 µM): 0.74

Which results are given for `COc1ccc2cc(-c3nc(-c4ccc([S+](C)[O-])cc4)[nH]c3-c3ccncc3)ccc2c1` (stereo not given) [tie2-kinase-inhibitor]?
cell viability ([1]; 1 nM): 104%; cell viability ([1]; 10 nM): 103%; cell viability ([1]; 100 nM): 101%; cell viability ([1]; 1000 nM): 98.1%; cell viability ([1]; 10000 nM): 56.7%; cell viability ([2]; 1 nM): 102%; cell viability ([2]; 10 nM): 102%; cell viability ([2]; 100 nM): 97.1%; cell viability ([2]; 1000 nM): 104%; cell viability ([2]; 10000 nM): 98.9%; cell viability ([3]; 1 nM): 104%; cell viability ([3]; 10 nM): 97.3%; cell viability ([3]; 100 nM): 106%; cell viability ([3]; 1000 nM): 96.5%; cell viability ([3]; 10000 nM): 84.6%; cell viability ([4]; 1 nM): 104%; cell viability ([4]; 10 nM): 102%; cell viability ([4]; 100 nM): 108%; cell viability ([4]; 1000 nM): 89.6%; cell viability ([4]; 10000 nM): 97.4%; cell viability ([5]; 1 nM): 109%; cell viability ([5]; 10 nM): 103%; cell viability ([5]; 100 nM): 98.6%; cell viability ([5]; 1000 nM): 91.7%; cell viability ([5]; 10000 nM): 79.9%; phospholipidosis EC50 ([6]; 24 h): 7.52 µM; phospholipidosis EC50 ([6]; 48 h): 6.68 µM; drug-induced phospholipidosis ([7]; 0.3 µM, 24 h): 3.67%; drug-induced phospholipidosis ([7]; 0.3 µM, 48 h): 4.58%; drug-induced phospholipidosis ([7]; 0.3 µM, 72 h): 3.91%; drug-induced phospholipidosis ([7]; 0.833333 µM, 24 h): 4.27%; drug-induced phospholipidosis ([7]; 0.833333 µM, 48 h): 3.03%; drug-induced phospholipidosis ([7]; 0.833333 µM, 72 h): -0.14%; drug-induced phospholipidosis ([7]; 3.33333 µM, 24 h): 13.4%; drug-induced phospholipidosis ([7]; 3.33333 µM, 48 h): 14.7%; drug-induced phospholipidosis ([7]; 3.33333 µM, 72 h): 11.2%; drug-induced phospholipidosis ([7]; 6.66667 µM, 24 h): 35.8%; drug-induced phospholipidosis ([7]; 6.66667 µM, 48 h): 33.7%; drug-induced phospholipidosis ([7]; 6.66667 µM, 72 h): 35.7%; drug-induced phospholipidosis ([7]; 10 µM, 24 h): 68%; drug-induced phospholipidosis ([7]; 10 µM, 48 h): 65%; drug-induced phospholipidosis ([7]; 10 µM, 72 h): 69.8%; drug-induced phospholipidosis ([7]; 30 µM, 24 h): 86.8%; drug-induced phospholipidosis ([7]; 30 µM, 48 h): 56.9%; cell count ([8]; 0.3 µM): 101%; cell count ([8]; 3 µM): 114%; cell count ([8]; 10 µM): 122%; cell count ([8]; 30 µM): 112%; drug sensitivity score [9]: 2.5; drug sensitivity score [10]: 0; drug sensitivity score [11]: 0.6; drug sensitivity score [12]: 0.1; drug sensitivity score [13]: 1.2; relative viability EC50 [15]: > 10 µM; relative viability EC50 [19]: > 10 µM; relative viability EC50 [20]: > 10 µM; relative viability EC50 [16]: > 10 µM; SARS-CoV-2 infection rate ([17]; 0.3 µM): 98%; SARS-CoV-2 infection rate ([17]; 3 µM): 87%; SARS-CoV-2 infection rate ([17]; 10 µM): 43%; SARS-CoV-2 infection rate ([17]; 30 µM): 59%; morphology score ([18]; 0.3 µM): 0.15; morphology score ([18]; 3 µM): 0.39; morphology score ([18]; 10 µM): 0.69; morphology score ([18]; 30 µM): 0.58
